Measured values taken from the supplement of paper PMC10307832.

How the values were obtained:
Experiment in all cases: relative viability (nuclei count vs DMSO), 5 days (fraction); higher = more cells survive
Tosedostat + Bortezomib = compound: CC(C)C[C@@H](C(=O)N[C@H](C(=O)OC1CCCC1)c1ccccc1)[C@H](O)C(=O)NO [Tosedostat] + CC(C)C[C@H](NC(=O)[C@H](Cc1ccccc1)NC(=O)c1cnccn1)B(O)O [Bortezomib] (partner 0.002 µM)
Method in brief: (§1)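 Relative viability equals treated-well nuclei counts divided by vehicle-well nuclei counts. Counts came from 4× images of lung cancer cell lines grown in 1536-well plates for 5 days after pin-tool dosing on the day after seeding. Dosing used one drug alone or a fixed anchor-drug dose plus five library-drug doses (not always all listed) in √10 steps, and values are medians of duplicate plates.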

Tosedostat + Crizotinib = compound: CC(C)C[C@@H](C(=O)N[C@H](C(=O)OC1CCCC1)c1ccccc1)[C@H](O)C(=O)NO [Tosedostat] + C[C@@H](Oc1cc(-c2cnn(C3CCNCC3)c2)cnc1N)c1c(Cl)ccc(F)c1Cl [Crizotinib] (partner 1 µM)
Method in brief: as §1

[1] = compound: CC1=NN=C(O1)C2=NN=C(C=C2)N3CCC(CC3)OC4=C(C=CC(=C4)F)Cl + CC(C)C[C@H](NC(=O)[C@H](Cc1ccccc1)NC(=O)c1cnccn1)B(O)O [Bortezomib] (partner 0.002 µM)
Method in brief: as §1

[2] = compound: CC1=NN=C(O1)C2=NN=C(C=C2)N3CCC(CC3)OC4=C(C=CC(=C4)F)Cl + NC(=O)Nc1cc(-c2cccc(F)c2)sc1C(=O)N[C@H]1CCCNC1 [AZD7762] (partner 0.2 µM)
Method in brief: as §1

Cell Line | relative viability (Tosedostat + Bortezomib; first compound 0.02 µM) | relative viability (Tosedostat + Bortezomib; first compound 0.06325 µM) | relative viability (Tosedostat + Bortezomib; first compound 0.2 µM) | relative viability (Tosedostat + Bortezomib; first compound 0.6325 µM) | relative viability (Tosedostat + Bortezomib; first compound 2 µM) | relative viability (Tosedostat + Crizotinib; first compound 0.02 µM) | relative viability (Tosedostat + Crizotinib; first compound 0.06325 µM) | relative viability (Tosedostat + Crizotinib; first compound 0.2 µM) | relative viability (Tosedostat + Crizotinib; first compound 0.6325 µM) | relative viability (Tosedostat + Crizotinib; first compound 2 µM) | relative viability ([1]; first compound 0.253 µM) | relative viability ([1]; first compound 0.8 µM) | relative viability ([1]; first compound 2.53 µM) | relative viability ([1]; first compound 8 µM) | relative viability ([2]; first compound 0.253 µM) | relative viability ([2]; first compound 0.8 µM) | relative viability ([2]; first compound 2.53 µM) | relative viability ([2]; first compound 8 µM)
NCI-H1299 | 1.05 | 1 | 1.01 | 0.965 | 0.893 | 1.05 | 0.919 | 0.933 | 0.926 | 0.873 | 0.935 | 0.911 | 0.858 | 0.807 |  |  |  | 
NCI-H1793 |  |  |  |  |  |  |  |  |  |  |  |  |  |  | 0.411 | 0.482 | 0.756 | 0.407
COR-L 105 | 0.733 | 0.605 | 0.807 | 0.781 | 0.542 | 0.865 | 0.751 | 0.827 | 0.493 | 0.548 | 0.851 | 0.78 | 0.983 | 1.18 |  |  |  | 
NCI-H1563 | 0.924 | 0.818 | 0.943 | 0.948 | 0.8 | 0.877 | 0.998 | 0.893 | 1.07 | 0.917 | 0.872 | 0.829 | 0.823 | 0.934 |  |  |  | 
NCI-H661 | 0.846 | 0.69 | 0.894 | 0.63 | 0.768 | 0.929 | 0.93 | 1.12 | 1.04 | 1.04 | 0.695 | 0.539 | 0.801 | 0.669 |  |  |  | 
NCI-H1648 |  |  |  |  |  |  |  |  |  |  |  |  |  |  | 0.434 | 0.532 | 0.6 | 0.503
A549 |  |  |  |  |  | 0.869 | 0.726 | 0.702 | 0.652 | 0.683 |  |  |  |  |  |  |  | 
NCI-H522 |  |  |  |  |  |  |  |  |  |  |  |  |  |  | 0.9 | 0.879 | 0.857 | 0.715
NCI-H2023 | 0.961 | 0.965 | 0.888 | 0.649 | 0.817 | 0.689 | 0.609 | 0.747 | 0.696 | 0.637 | 0.49 | 0.415 | 0.505 | 0.386 |  |  |  | 
NCI-H2170 |  |  |  |  |  | 1.17 | 1.12 | 1.19 | 1.22 | 1.37 |  |  |  |  | 0.343 | 0.346 | 0.472 | 0.367
SW 900 |  |  |  |  |  |  |  |  |  |  |  |  |  |  |  | 0.563 | 0.596 | 0.66
NCI-H1395 |  |  |  |  |  |  |  |  |  |  |  |  |  |  | 0.377 | 0.378 | 0.392 | 0.404
IA-LM | 0.854 | 0.731 | 0.814 | 0.848 | 0.735 | 0.937 | 0.879 | 0.776 | 0.692 | 0.602 | 0.17 | 0.137 | 0.132 | 0.186 |  |  |  | 
NCI-H358 |  |  |  |  |  | 0.725 | 0.458 | 0.355 | 0.198 | 0.196 |  |  |  |  | 0.559 | 0.521 | 0.614 | 0.544
SW 1573 | 1.1 | 0.96 | 0.938 | 0.709 | 0.949 | 0.711 | 0.868 | 0.637 | 0.648 | 0.713 | 0.865 | 0.834 | 1.01 | 1.15 |  |  |  | 
EBC-1 | 0.538 | 0.516 | 0.505 | 0.405 | 0.334 | 0.197 | 0.185 | 0.197 | 0.179 | 0.153 | 0.479 | 0.476 | 0.444 | 0.412 |  |  |  | 
